Reference: patent publication US7338956B2, “Acylamino-substituted heteroaromatic compounds and their use as pharmaceuticals” (Sanofi-Aventis Deutschland GmbH, priority 2002, dated 2008)

System: eNOS promoter
Assay: Determination of activation of eNOS transcription (eNOS promoter firefly luciferase reporter gene assay)
Assay type: cell-based
Settings: human endothelial cell line stable transfected with eNOS promoter-luciferase construct; 18 h incubation; EC50 determined graphically; read-out: EC50 values of transcription induction ratio
Experimental: Activation of eNOS transcription was determined as described in detail in Li et al., “Activation of protein kinase C alpha and/or epsilon enhances transcription of the human endothelial nitric oxide synthase gene”, Mol. Pharmacol. 53 (1998) 630 (the content of which is incorporated herein by reference). Briefly, a 3.5 kB long fragment 5′ of the starting codon of the eNOS gene was cloned, sequenced and cloned in firefly luciferase expression plasmids to monitor activation of the eNOS promoter by reporter gene activity. A human endothelial cell line stable transfected and expressing this promoter-reporter construct was used for compound testing. Cells were incubated for 18 h with compounds.
All compounds were dissolved in sterile dimethyl sulfoxide (DMSO). A final concentration of 0.5% DMSO in complete medium was allowed. Induction of reporter gene expression in these cells was measured using a standard luciferase assay system (Promega, Cat. No E150) according to the manufacturer's instructions. Luciferase induction in cells incubated with compounds were compared to those incubated with solvent alone. The ratio of both activities (transcription induction ratio, TIR) was plotted as a function of compound concentration. […] EC50 values of transcription induction ratios as a function of compound concentration were determined graphically.

Row | SMILES | EC50
1 | O=C(Nc1nc2cc(Cl)ccc2s1)c1ccc(F)cc1 [Example 123, N-(5-Chlorobenzothiazol-2-yl)-4-fluorobenzamide] | 12 µM
2 | O=C(Nc1nc2cccc(Cl)c2s1)c1ccc(F)cc1 [Example 124, N-(7-Chlorobenzothiazol-2-yl)-4-fluorobenzamide] | < 0.1 µM
